Laboratory results from EP4559898A1, “NOVEL IONIZABLE CATIONIC LIPIDS CONTAINING THIOETHER LINKAGE” (AldexChem Kft., priority 2023, dated 2025).

Key:
[1] = Cell viability assessment with Resazurin assay; type: cell-based; settings: human, hela cells, average over all doses, percent of OptiMEM-only control, read-out: Cell Viability % (Average metabolic rate over all doses, Resazurin)
Excerpt: This protocol is used to determine the metabolic activity of cells as a measure for cell viability after exposure to potentially toxic substances. Resazurin is converted in mitochondria by reduction to resorufin, which has a much higher fluorescence at ~600 nm compared to unconverted resazurin. A lower amount/percentage of conversion is correlated with reduced cellular metabolism and indirectly to cellular death and toxicity. Care must be taken with interpretation of the read-out, as 50% reduction in resazurin conversion may mean 50% reduction of cellular metabolism of 100% alive cells, or 50% of cells dead, and any combination in between.
• 1. Prepare 0.25 mg/ml stock solution resazurin in fresh cell culture medium. Resazurin is auto-reducing over time in solution, especially in medium, and fresh stocks should be prepared every 2-3 days. Stocks should be stored at 4°C and protected from light. For HeLa cells, DMEM/F12 with 10% FCS is used. • 2. Dilute stock solution 10x in fresh cell culture medium to 0.025 mg/ml -> ready for application on cells. For HeLa cells, DMEM/F12 with 10% FCS is used. • 3. Collect 96-well plate and replace cell-culture spent medium with 100 µl per well resazurin solution. Add some resazurin solution for background measurement in wells not containing cells. • 4. Incubate for 50 minutes in incubator at 37°C, 5% CO2, 95% RH. • 5. Transfer resazurin solution to a fresh 96- or 384-well plate. • 6. Measure in plate reader using 540/25 nm (excitation) and 610/40 nm (emission) using standard settings (PTM low/OD-1.0). • 7. Subtract the average background measurement from all samples. Set the average of the negative controls (well receiving OptiMEM only during transfection) to 100% and express all values as percentage of the control activity. Typically, at lower levels of treatment, elevation of metabolic activity is shown, whereas for toxic substances, at toxic concentrations sigmoidal curves can be obtained, with lower activity indicating higher toxicity.

[2] = Size, PDI and Zeta potential of LNPs by dynamic light scattering; type: physicochemical; settings: LNP formulated with tested lipid, diluted in 1x PBS pH 7.4; for Size: DOTAP, DOPE, Resveratrol, DSPE-PEG and mRNA, dialyzed; for Size / PDI: DLS
Protocol: • 1. If needed, prepare stock solutions by solving known amounts of lipid powder into an appropriate solvent. The recommended solvent is ethanol and the recommended concentration is typically in the range 10-50 mM. Higher concentrations are preferred to allow flexibility on mRNA-LNP concentration. • 2. Remove the lipid stock solutions from the -20°C freezer. For long-term storage, -80°C is used. • 3. Check the vials for precipitation, DOPE (CAS# 4004-05-1) (20 mM) and DSPE-PEG (CAS# 474922-26-4) (5mM) may need a 5-30 minute incubation step at 37°C with intermittent vortexing to resuspend all contents. […] As a last resort, lipids may be heated to 50°C to resuspend, time should be kept as short as possible to prevent oxidation or other modifying or degradative processes. • 4. Mix the lipids by vortexing for 2 minutes. • 5. […] Cooling the solution prevent excessive evaporation of ethanol or similar solvents upon opening. • 6. Meanwhile, thaw the RNA samples, including the latest SecNLuc control, by inserting the frozen tube in a room temperature aluminium block. • 7. Prepare for each LNP-formulation with identical mRNA component, an RNA master mix according to Table 1 below in a fresh tube. Use of a master mix allows more precise comparison of lipid formulations relative to each other. Split the master mix over a number of fresh tubes equal to the number of samples + controls. Each tube contains 375 µl of mRNA in 10 mM Citrate pH 4.0. • 8. Prepare for each LNP formulation with identical lipid composition a Lipid master mix according to Table 1 below in a fresh tube, exclude the lipid of interest. Use of a master mix allows more precise comparison of the novel ionizable lipid relative to each other. Split the master mix over a number of fresh tubes equal to the number of samples + controls. Each tube contains 65.5 µl of lipid master mix. • 9. Add the ionizable lipid of interest to the equally divide lipid master mix. Mix well by pipetting up and down. Label the tube according to the ionizable lipid used. • 10. Power on the L1 FM (L1 Formulation Machine uses 2 high-speed syringe pumps to mix lipids in organic solvents with mRNA in acidic aqeuous solution to generate well-defined LNPs. The microfluidic mixing chip involves a dean-type structure performing the high-efficiency mixing at a total flow rate (TFR) of around 12ml/min at a 3:1 mixing ratio) and allow it to do a calibration of motor positions. Table 1: Lipid formulation solution
• 18. Fill a fresh syringe (C) through a blunt 18G stainless steel needle with the previously prepared RNA mixture of step 6. The volume should be approximately 85% of total formulation volume + 25 µl (dead-volume). Make sure to remove all air bubbles by tapping. • 19. Fill a fresh syringe (D) through a blunt 18G stainless steel needle with the Lipid master mix. The volume should be approximately […] of total formulation volume + 25 µl (dead-volume). Again, Make sure to remove all bubbles. • 20. Attach the syringes in the correct orientation, […] • 21. Load the 'Receiving station' with appropriate sized collection containers (2 ml Eppendorf tubes). • 22. Press the microfluidic chip to the back of the machine with your thumb and hold, press the 'Button 1' (40 µg). The L1 FM pushes the total volume from the syringes in a perfect 3:1 (mRNA aqueous: lipid in EtOH) ratio through the microfluidic mixer chip with a total flow-rate of […] (Total flow rate (TFR)). • 23. Remove the sample tube from the 'Receiving station' and label the tube accordingly. • 24. Reset the machine to prepare with the next formulation.
• 25. Transfer the individual formulations to 100 kda MWCO, SpectraPor Biotech dialysis tubing, and close with designated clamps. • 26. Submerge the dialysis bags in beakers filled with 1x Phosphate-buffered saline (PBS buffer, pH 7.4, Gibco cat# 202212-019), stir at 230 RPM at room temperature. • 27. […]

For `CCCCCCCCCCSC(CCCC)C(=O)OCCCCCCN(CCO)CCCCCCOC(=O)C(CCCC)SCCCCCCCCCC` (centres unmarked) [Example 4, ((2-hydroxyethyl)azanediyl)bis(hexane-6,1-diyl) bis(2-(decylthio)hexanoate)], the viability at 24 h [1] was 98%, the Size [2] was 149,7 nm and the Zeta potential [2] was -12,66 mV. The PDI [2] was 0,071.

In the case of `CCCCCCCCC(CCCCCC)C(=O)OCCCCCCN(CCCCO)CCCCCCOC(=O)C(CCCCCC)CCCCCCCC` (centres unmarked) [ALC-0315 ref., reference compound], the viability at 24 h [1] is reported as 96%, the Size [2] is reported as 131,9 nm and the Zeta potential [2] is reported as -12,32 mV. For the same compound, the PDI [2] was 0,007.

With `CCCCCCCCCCSC(CCCCCCCC)C(=O)OCCCCCCN(CCCCO)CCCCCCOC(=O)C(CCCCCCCC)SCCCCCCCCCC` (centres unmarked) [Example 7, ((4-hydroxybutyl)azanediyl)bis(hexane-6,1-diyl) bis(2-(decylthio)decanoate)] the viability at 24 h [1] was 106%, the Size [2] was 152,7 nm and the Zeta potential [2] was -15,85 mV. For the same compound, the PDI [2] was 0,022.

With `CCCCCCCCCCSC(CCCC)C(=O)OCCCCCCN(CCCCCCOC(=O)C(CCCC)SCCCCCCCCCC)CCC1CCCN1C` (centres unmarked) [Example 5, ((2-(1-methylpyrrolidin-2-yl)ethyl)azanediyl)bis(hexane-6,1-diyl) bis(2-(decylthio)hexanoate)] the viability at 24 h [1] was 97%, the Size [2] was 291,8 nm and the Zeta potential [2] was -9,117 mV. The PDI [2] was 0,169.

With `CCCCCCCCCCCCCCSCC(=O)OCCCCCCN(CCCCO)CCCCCCOC(=O)CSCCCCCCCCCCCCCC` [Example 10, ((4-hydroxybutyl)azanediyl)bis(hexane-6,1-diyl) bis(2-(tetradecylthio)acetate)] the viability at 24 h [1] was 99%, the Size [2] was 203,9 nm and the Zeta potential [2] was -9,983 mV. The PDI [2] was 0,014.

In the case of `CCCCCCCCC(SCCCCCCC)C(=O)OCCCCCCN(CCCCO)CCCCCCOC(=O)C(CCCCCCCC)SCCCCCCC` (centres unmarked) [Example 6, ((4-hydroxybutyl)azanediyl)bis(hexane-6,1-diyl) bis(2-(heptylthio)decanoate)], the viability at 24 h [1] is reported as 101%, the Size [2] is reported as 126,0 nm and the Zeta potential [2] is reported as -11,48 mV. For the same compound, the PDI [2] was 0,013.

With `CCCCCCCCCCSC(CCCC)C(=O)OCCCCCCCCN(CCCCO)CCCCCCCCOC(=O)C(CCCC)SCCCCCCCCCC` (centres unmarked) [Example 3, ((4-hydroxybutyl)azanediyl)bis(octane-8,1-diyl) bis(2-(decylthio)hexanoate)] the viability at 24 h [1] was 103%, the Size [2] was 185,7 nm and the Zeta potential [2] was -9,667 mV. For the same compound, the PDI [2] was 0,122.

With `CCCCCCCCCCSC(CCCCCC)C(=O)OCCCCCCN(CCCCO)CCCCCCOC(=O)C(CCCCCC)SCCCCCCCCCC` (centres unmarked) [Example 8, ((4-hydroxybutyl)azanediyl)bis(hexane-6,1-diyl) bis(2-(decylthio)octanoate)] the viability at 24 h [1] was 104%, the Size [2] was 153,5 nm and the Zeta potential [2] was -14,32 mV. The PDI [2] was 0,038.

For `CCCCCCCSC(CCCCCC)C(=O)OCCCCCCN(CCCCO)CCCCCCOC(=O)C(CCCCCC)SCCCCCCC` (centres unmarked) [Example 9, ((4-hydroxybutyl)azanediyl)bis(hexane-6,1-diyl) bis(2-(heptylthio)octanoate)], the viability at 24 h [1] was 106%, the Size [2] was 167,3 nm and the Zeta potential [2] was -13,37 mV. The PDI [2] was 0,144.

In the case of `CCCCCCCCCCSC(CCCC)C(=O)OCCCCCCN(CCCCO)CCCCCCOC(=O)C(CCCC)SCCCCCCCCCC` (centres unmarked) [Example 1, ((4-hydroxybutyl)azanediyl)bis(hexane-6,1-diyl) bis(2-(decylthio)hexanoate)], the viability at 24 h [1] is reported as 90%, the Size [2] is reported as 226,7 nm and the Zeta potential [2] is reported as -10,74 mV. The PDI [2] was 0,223.

With `CCCCCCCCC(SCCCCC)C(=O)OCCCCCCN(CCCCO)CCCCCCOC(=O)C(CCCCCCCC)SCCCCC` (centres unmarked) [Example 2, ((4-hydroxybutyl)azanediyl)bis(hexane-6,1-diyl) bis(2-(pentylthio)decanoate)] the viability at 24 h [1] was 94%, the Size [2] was 188,2 nm and the Zeta potential [2] was -11,48 mV. The PDI [2] was 0,136.
